From patent publication US10092657B2, “Opsonized β-glucan preparations and methods” (Biothera, Inc., priority 2011, dated 2018)

Columns and labels:
[1] = system: T-cells; assay: Binding of PGG β-glucan to T-cells within PBMC (BfD IV staining, flow cytometry); format: cell-based, human; details: 100, 200, 400 μg/mL; 10% autologous serum; 37° C.; two hours
Description: Enriched neutrophils or PBMC were resuspended at 1×10^6 cells/mL in RPMI 1640 supplemented with 10% serum. PGG β-glucan at hexose concentrations 100 μg/mL, 200 μg/mL, or 400 μg/mL were added to neutrophils or PBMC and incubated in a 37° C., 5% CO2 humidified incubator for two hours. After incubation, cells were washed twice with FACS buffer (HBSS supplemented with 1% FBS and 0.1% sodium azide) to remove any unbound β-glucan, and subsequently treated with Fc block (Miltenyi Biotec, Auburn, Calif.). After the Fc block step, cells were stained with the BfD IV Ab for 30 minutes at 4° C. and washed twice with cold FACS buffer. Cells were then incubated with FITC-conjugated F(ab′)2 goat anti-mouse IgM for 30 minutes at 4° C. and washed once with cold FACS buffer before fixing with 1% paraformaldehyde.
In early optimization experiments, neutrophils, monocytes, and T cells were identified by staining with fluorescently labeled anti-CD 15, anti-CD 14, or anti-CD3 Abs, respectively. […] Surface binding of DTAF-conjugated β-glucan was subsequently assessed by flow cytometric analysis. To determine receptor-specific binding, binding of 25 μg/mL of DTAF-labeled PGG β-glucan was assessed by incubating the labeled β-glucan with the cells in the presence of 10 mg/mL of unlabeled PGG β-glucan or dextran.

[2] = system: human neutrophils; assay: Binding studies on the role of complement proteins in serum, neutrophils; format: cell-based
Description: Heat-inactivated (HI) serum was prepared by incubating serum in a 56° C. water bath for 30 minutes. […] Treatment of serum with methylamine (MA) was done by incubating serum with 0.67% of methylamine for 2.5 hours at 37° C., followed by three washes with DPBS using Amicon centrifugal filter unit with a 3K MW cut-off (Millipore, Billerica, Mass.). DPBS-treated serum was prepared in the same manner and used as control serum for MA-treated serum. For blocking of factor D in the serum, 166-32 at concentration 20 μg/mL was incubated with serum on ice for 30 minutes, and then used for binding studies. For binding experiments in the presence of EGTA or MgEGTA, serum was incubated with 10 mM EGTA with or without 10 mM MgCl2 for 10 minutes at room temperature. The untreated and EGTA/MgEGTA-treated serum was then used to pre-treat PGG and perform binding studies as described earlier.

β(1,6)-[poly-1,3)-D-glucopyranosyl]-poly-β(1,3)-D-glucopyranose [PGG β-glucan]
Binding (MFI and percentage of BfD IV positive cells) [1]: not to T-cells
Binding in the presence of heat inactivated (HI) serum ([2]; 10% HI serum vs regular serum, 200 μg/mL): abrogated
Average percentage of binding inhibition in HI serum ([2]; based on MFI, five donors): 89%
Range of percentage of binding inhibition in HI serum ([2]; based on MFI, five donors): 71-100%
